Publication PMC6554663, “Pharmaceutical Effects of Inhibiting the Soluble Epoxide Hydrolase in Canine Osteoarthritis” (Frontiers in Pharmacology, 2019)
≈ marks a conversion by molar mass, not a printed value. Where “and” joins values, the source holds several entries; their conditions need not be identical. Equal values may be shown once. Read-outs that look alike come from different tables or passages of the source.

Key:
[1] = Solubility of sEHI; assay type: physicochemical; conditions: PEG300, organic solvent or mixture
Experimental: […] The non-dissolved compounds were filtered through a 0.22 μm centrifuge filter at 40°C and the supernatant was further diluted 10 times with methanol. The samples were analyzed by LC/MS-MS.

[2] = Microsomal stability; assay type: in vitro ADME, dog; conditions: for % Parent + NADPH / % Parent − NADPH: 60 min, 37°C
Experimental: Male and female dog liver microsomes (Xenotech) were diluted in potassium phosphate buffer (0.1M, pH 7.4), MgCl2 (3.15 mM), and sodium EDTA (1.05 mM) to a final protein concentration of 1 mg/mL. Compounds were added at 0.1 mM in methanol at 1% and microsomes were activated with 5% (v/v) NADPH regenerating system (100 μL sodium phosphate buffer (0.1M, pH 7.4), 50 μL, glucose-6-phosphate in sodium phosphate buffer (0.1M, pH 7.4), 50 μL NADP+ in sodium phosphate (0.1M, pH 7.4), and 50 μL of 100 Units/mL of […]). […] Compounds were incubated without microsomes or NADPH as negative controls.

[3] = PK analysis in satellite dogs; assay type: in vivo, dog; conditions: beagle, dog, whole blood; for AUC(0-t) / Cmax: detected EC1728, blood
Experimental: (§1) Eight satellite dogs (2 per each group) had whole blood collected for PK analysis on study Days […]. On Day 1, blood was collected immediately prior to dosing, and again at 0.25, 0.5, 1, 2, 4, 6, and 8 (±5 min) after dosing. On Day 2 through 4, blood was collected 0.5 h (±5 min) after dosing. On Day 5 blood was collected immediately prior to dosing, and again at 0.25, 0.5, 1, 2, 4, 6, 8 (±5 min), 24, 48, and 72 h (±30 min) post treatment. […] For all blood samples, a minimum of 3 mL of whole blood was collected from a suitable vein as per written and approved standard operating procedures. The blood was transferred to K2EDTA (spray dried) blood tube and inverted gently multiple times to ensure proper mixing of the blood and anticoagulant. On study Day 5, synovial fluid was collected by arthrocentesis immediately after the subject completed the questionnaire (approximately […] after dosing). Subjects were anesthetized as per written and approved Standard Operating Procedures. A minimum of 0.1 mL of synovial fluid was collected from each subject. Samples were frozen in an upright position and stored at -80°C ± 4°C before being shipped to UC Davis for analysis.
For PK analysis in the satellite group, individual parameters were calculated by fitting blood concentrations to a non-compartmental analysis using Kinetica software (Thermo Fisher Scientific version 5.1). Using the log-linear trapezoidal method, the area under the curve were calculated and were extrapolated to infinity using the last measured plasma concentration (Clast), defined as the timepoint collected 72 h after the last dose or 8 hr after the first dose on day 1, divided by the terminal slope (λz).

[4] = Blood and synovial fluid concentrations in treated osteoarthritic dogs; assay type: in vivo, dog; conditions: for concentration at 2 h: beagle, dog, oral, EC1728 5 mg/kg; for Blood concentration D5 / Synovial fluid concentration D1 / Synovial fluid concentration D5: po, qd x 5, detected EC1728, individual dogs;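 on Synovial fluid concentration D1: synovial fluid also sampled on Day 1 after the pain assessment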
Experimental: as §1
Pain and function were assessed by a questionnaire answered by blinded technicians based on observation of study animals housed at InterVivo. The survey was adapted from the canine brief pain inventory (CBPI), which was developed based on clinical questionnaires in which owners score the function and pain level of their pets with existing pain conditions ([Brown et al., 2007]). Modifications to the questionnaire attempted to account for differences between owner pain evaluation of pets and pain evaluation of laboratory dogs by technical staff. For survey administration, blinded technicians attempted to elicit objective behavior-specific measures of function and pain level across a variety of normal canine behaviors (e.g., walking, trotting, galloping, rearing, and stair-climbing, etc.). For this, one technician was responsible for soliciting the relevant behaviors from a dog using encouragement and/or food rewards, while the evaluating technician scored function and observable pain using the modified CBPI questionnaire. Subjects were tested daily on Days -7 through -3, to develop baseline scores, and again on Days 1 through 5 administered 1.5 h after dosing. Dosing occurred in the morning, and observations were recorded 1.5 h after dosing, to limit time-of-day variability. Questions are listed in Supplementary Table S3. Animals in treatment groups had blood and synovial fluid collected ∼2 h after the last dose on day 5 (immediately following the study questionnaire) to confirm plasma concentrations in treated animals. Full pharmacokinetic assessments were collected from a satellite group of animals so as not to interfere with pain assessment.

[5] = female, po, 1 mg/kg, dosed EC1728 1 mg/kg oral qd, female dog, Day 1
[6] = female, po, 1 mg/kg, dosed EC1728 1 mg/kg oral qd, female dog, Day 5
[7] = female, po, 5 mg/kg, dosed EC1728 5 mg/kg oral qd, female dog, Day 1
[8] = female, po, 5 mg/kg, dosed EC1728 5 mg/kg oral qd, female dog, Day 5
[9] = male, po, 1 mg/kg, dosed EC1728 1 mg/kg oral qd, male dog, Day 1
[10] = male, po, 1 mg/kg, dosed EC1728 1 mg/kg oral qd, male dog, Day 5
[11] = male, po, 5 mg/kg, dosed EC1728 5 mg/kg oral qd, male dog, Day 1
[12] = male, po, 5 mg/kg, dosed EC1728 5 mg/kg oral qd, male dog, Day 5

## O=C(Nc1ccc(OC(F)(F)F)cc1)N[C@H]1CC[C@H](Oc2ccc(C(=O)O)cc2)CC1 [EC1728, trans-4-{4-[3-(4-trifluoromethoxy-phenyl)-ureido]-cyclohexyloxy}-benzoic acid]
[1]
  solubility: 97 ± 2 mg/mL (≈ 221 mM)
[2]; female dog liver microsomes
  % Parent + NADPH: 98 ± 6%
  % Parent − NADPH: 106 ± 9%
[2]; male dog liver microsomes
  % Parent + NADPH: 103 ± 6%
  % Parent − NADPH: 108 ± 8%
[2]; pH 7.4, dog liver microsomes, 60-min incubation, sex not specified
  remaining at 1 h, 1 µM: > 95%
[3]; oral, satellite dogs, range over both compounds, Table 3, read-out: half-life
  half-life: 24 to 40 h
[3]; [5]
  AUC(0-t): 1350 ng·h/mL
  Cmax: 308 ng/mL
[3]; [6]
  AUC(0-t): 155000 ng·h/mL
  Cmax: 4660 ng/mL
[3]; female, po, 1 mg/kg, read-out: T1/2 (converted)
  half-life: 33 h
[3]; [7]
  AUC(0-t): 4940 ng·h/mL
  Cmax: 1160 ng/mL
[3]; [8]
  AUC(0-t): 53200 ng·h/mL
  Cmax: 4990 ng/mL
[3]; female, po, 5 mg/kg, read-out: T1/2 (converted)
  half-life: 23 h
[3]; [9]
  AUC(0-t): 1690 ng·h/mL
  Cmax: 330 ng/mL
[3]; [10]
  AUC(0-t): 32000 ng·h/mL
  Cmax: 1900 ng/mL
[3]; male, po, 1 mg/kg, read-out: T1/2 (converted)
  half-life: 27 h
[3]; [11]
  AUC(0-t): 3760 ng·h/mL
  Cmax: 1100 ng/mL
[3]; [12]
  AUC(0-t): 96300 ng·h/mL
  Cmax: 1930 ng/mL
[3]; male, po, 5 mg/kg, read-out: T1/2 (converted)
  half-life: 25 h
[4]; blood, 5 mg/kg, day 5, group without dog 2.4, read-out: Blood concentration, average for the remainder of the group
  concentration at 2 h: 395 ng/mL
[4]; synovial fluid, 5 mg/kg, day 5, read-out: Synovial fluid concentration, averaged for the group
  concentration at 2 h: 988 ng/mL
[4]; synovial fluid, 5 mg/kg, dog 2.4 (low exposure, removed from analysis), read-out: Synovial fluid concentration, dog 2.4
  concentration at 2 h: 80 to 95 ng/mL
[4]; dosed EC1728 1 mg/kg, 1 mg/kg
  Blood concentration D5: 31 ng/mL and 72 ng/mL and 76 ng/mL and 64 ng/mL and 82 ng/mL and 40 ng/mL and 36 ng/mL and 171 ng/mL
  Synovial fluid concentration D1: 331 ng/mL and 206 ng/mL and 455 ng/mL and 232 ng/mL and 483 ng/mL and 111 ng/mL and 384 ng/mL and 917 ng/mL
  Synovial fluid concentration D5: 239 ng/mL and 206 ng/mL and 378 ng/mL and 328 ng/mL and 315 ng/mL and 171 ng/mL and 214 ng/mL and 945 ng/mL
[4]; dosed EC1728 5 mg/kg, 5 mg/kg
  Blood concentration D5: 34 ng/mL and 206 ng/mL and 348 ng/mL and 314 ng/mL and 935 ng/mL and 228 ng/mL and 493 ng/mL and 244 ng/mL
  Synovial fluid concentration D1: 2270 ng/mL and 301 ng/mL and 1180 ng/mL and 2220 ng/mL and 1470 ng/mL and 460 ng/mL and 95 ng/mL
  Synovial fluid concentration D5: 1000 ng/mL and 1150 ng/mL and 833 ng/mL and 1330 ng/mL and 672 ng/mL and 668 ng/mL and 2170 ng/mL and 80 ng/mL
